Measurements reported in patent US4278467A, “Substitutive additives for isopropyl alcohol in fountain solution for lithographic offset printing” (priority 1979, dated 1981).
Values after ≈ are worked out from the molar mass of the structure shown. Read-outs that look alike come from different tables or passages of the source. Blank lines part the entries; values can stand above or below the molecule they belong to.

Tests used:
[1] = Solubility of selected materials in water, expressed in percent by weight at 20° C.; type: physicochemical
[2] = Solubility of water in the material, percent by weight at 20° C.; type: physicochemical; settings: water dissolved in the additive
[3] = Surface tension as measured by the duNouy tensiometer device; type: physicochemical
Text: In continuous dampening systems, the dampening solution has a surface tension of from about 40 to 50 dynes/cm or less as measured by the duNouy tensiometer device. Isopropyl alcohol has an undiluted surface tension of about 21 dynes/cm and isopropyl alcohol at about 10 to 30 percent by volume in water has a surface tension of between 40 to 50 dynes/cm. […] The point where the optimum ink-water balance control is obtained depends on a combination of complicated factors not yet precisely known. These factors include the design and speed of the press, design of the dampening system, the nature and amount of concentrates that are used in the dampening solution, the nature of the form being printed and the experience of the operator. A typical lower limit of effective use of isopropyl alcohol in continuous flow dampening systems is between about 10 to 15 percent by volume. This corresponds to surface tension values in the range of about 40 to 50 dyne/cm.

[4] = 20° C.; cited from earlier work
[5] = cited from earlier work
[6] = Solubility of the material in heptane; type: physicochemical; settings: 20° C.

solubility ([1]; water, read-out: Sol. in Water): 42 mg/mL (≈ 287 mM)
Sol. of Water in (material) [2]: 12 percent by weight
SMILES: CCCC(O)C(CC)CO (stereo not drawn) [2-ethyl-1,3-hexanediol]

surface tension ([3]; about 10 to 30 percent by volume in water): 40 to 50 dynes/cm
surface tension ([3]; lower limit of effective use, about 10 to 15 percent by volume): 40 to 50 dyne/cm
surface tension ([3]; undiluted): about 21 dynes/cm
SMILES: CC(C)O [isopropyl alcohol]
vapor pressure [4]: about 30 mm of Hg
heat of vaporization ([5]; at its boiling point of 82° C.): 164 callories/gm

Sol. in Water [1]: 1.0 percent by weight
Sol. of Water in (material) [2]: 19 percent by weight
Sol. in Heptane [6]: Complete
SMILES: CCCCCCOCCO [n-hexyl Cellosolve, n-hexoxyethylene glycol]

SMILES: O [water]
vapor pressure [4]: ~18 mm of Hg
heat of vaporization ([5]; at 100° C.): 540 calories/gm
